2 compounds from patent US20110280862A1, “GEP AND DRUG TRANSPORTER REGULATION, CANCER THERAPY AND PROGNOSIS” (THE UNIVERSITY OF HONG KONG, priority 2010, published 2011) can be followed below.

In brackets after ≈: the same amount, converted by molar mass. Like-named read-outs stand apart in the source and are kept apart here.

Common to all, as to assay type: cell-based, Human
The test system of test [1] is Hep3B cells. Description: MTT assay, drug IC50, parental cells. Here is the method: (§1) Human liver cancer cell lines, Hep3B and HepG2, were purchased from American Type Culture Collection (Manassas, Va.). Culture method has been previously described, for example by Ho J C, et al. Hepatology 2008; 47: 1524-1532 and Cheung S T, et al. Clin Cancer Res 2004; 10: 7629-7636. Stable transfectants for GEP overexpression and suppression have also been described. For chemoresistant populations, the Hep3B cells were plated out and selected under various chemotherapeutic agents of various concentrations at 10-fold dilution for 30 days. The highest dose that still had viable cells over the extended selection period was used and the cells expanded for further selection. The one-step selected cells were then plated out again and selected under escalating doses of the respective drug in a 2-fold manner for another 30 days. The two-step selection process could select a population of cells more resistant to chemotherapeutic agents. The cells selected for resistance to doxorubicin were referred to as doxorubicin resistant cells. […] The drug IC50 value was determined by MTT assay. […] Apoptosis was determined by Annexin V-FITC (AV-FLI) and propidium iodide (PI-FL2) staining using flow cytometry. […] For doxorubicin uptake assays, cells were incubated with or without doxorubicin for 24 hours, and doxorubicin content (FL2) was analyzed by flow cytometry. […]
(Tetrazolium dyes change colour on reduction, which living cells bring about.)

For test [2], the system named is cisplatin resistant cells. Description: MTT assay, drug IC50, cisplatin resistant cells. Here is the method:
as §1

Test [3] relates to doxorubicin resistant cells. The test can be described thus: MTT assay, drug IC50, doxorubicin resistant cells. Here is the method:
as §1

Test [4] relates to GEP overexpression transfectants. Description: Doxorubicin uptake assay by flow cytometry. Particulars: doxorubicin 0.5 μg/ml, 24 hours, control or with ABCB5 suppression by siRNA. Here is the method: (§2) Human liver cancer cell lines, Hep3B and HepG2, were purchased from American Type Culture Collection (Manassas, Va.). Culture method has been previously described, for example by Ho J C, et al. Hepatology 2008; 47: 1524-1532 and Cheung S T, et al. Clin Cancer Res 2004; 10: 7629-7636. Stable transfectants for GEP overexpression and suppression have also been described. For chemoresistant populations, the Hep3B cells were plated out and selected under various chemotherapeutic agents of various concentrations at 10-fold dilution for 30 days. The highest dose that still had viable cells over the extended selection period was used and the cells expanded for further selection. The one-step selected cells were then plated out again and selected under escalating doses of the respective drug in a 2-fold manner for another 30 days. The two-step selection process could select a population of cells more resistant to chemotherapeutic agents. The cells selected for resistance to doxorubicin were referred to as doxorubicin resistant cells. Similarly, the cells selected under cisplatin were referred to as cisplatin resistant cells. The drug IC50 value was determined by MTT assay. For apoptosis assays, cells were incubated with or without chemotherapeutic agents for 24 to 48 hours. Apoptosis was determined by Annexin V-FITC (AV-FLI) and propidium iodide (PI-FL2) staining using flow cytometry. The total apoptotic population included the early apoptotic cells (high MFI of AV but low PI) plus the late apoptotic cells (high MFI of both AV and PI) of the scatter plot. […] For doxorubicin uptake assays, cells were incubated with or without doxorubicin for 24 hours, and doxorubicin content (FL2) was analyzed by flow cytometry. Pilot studies had examined treatment time-points 0, 1, 3, 6 and 24 hours, and the latter three time-points had similar data profiles. […] There was a time-dependent effect, and thus the data charts presented the data of the 24-hour treatment in comparison with the baseline data. […]
For orientation: A flow cytometer gives signals particle by particle.

Test [5] has as its system Hep3B cells. Description: Doxorubicin uptake assay by flow cytometry. Particulars: doxorubicin 0.5 μg/ml, 24 hours, control or with ABCB5 suppression by siRNA. Here is the method:
as §2

Test [6] deals with doxorubicin resistant cells. Description: Doxorubicin uptake assay by flow cytometry. The conditions noted are these: doxorubicin 0.5 μg/ml, 24 hours, control or with ABCB5 suppression by siRNA. How it is done:
as §2

Test [7] has as its system GEP overexpression transfectants. Description: Apoptosis assay, Annexin V/PI flow cytometry. Particulars: doxorubicin 0.5 μg/ml, 24 hours, control or with ABCB5 suppression by siRNA. How it is done: as §2
The test system of test [8] is Hep3B cells. Description: Apoptosis assay, Annexin V/PI flow cytometry. The conditions noted are these: doxorubicin 0.5 μg/ml, 24 hours, control or with ABCB5 suppression by siRNA. How it is done:
as §2

The test system of test [9] is doxorubicin resistant cells. Description: Apoptosis assay, Annexin V/PI flow cytometry. The conditions noted are these: doxorubicin 0.5 μg/ml, 24 hours, control or with ABCB5 suppression by siRNA. How it is done:
as §2

As a reminder, the IC50 is the concentration that gives 50% inhibition. As to `N.N.[Cl][Pt][Cl]` [cisplatin], the IC50 in the test on Hep3B cells [1] came to 0.84 µg/mL; in test [2] (cisplatin resistant cells, MTT assay), 8.53 µg/mL. The “increase in resistance compared to parental cells” value in [2] (cisplatin resistant cells vs parental cells) is “more than 10 folds”.
For the compound `COc1cccc2c1C(=O)c1c(O)c3c(c(O)c1C2=O)C[C@@](O)(C(=O)CO)C[C@@H]3O[C@H]1C[C@H](N)[C@H](O)[C@H](C)O1` [doxorubicin], the IC50 in the test on Hep3B cells [1] (Homo sapiens, Hep3B, read-out: IC50) is 0.11 µg/mL (≈ 0.202 µM); in [3] (Homo sapiens, doxorubicin resistant cells, MTT assay) it was 1.78 µg/mL (≈ 3.27 µM). Further, the “increase in resistance compared to parental cells” value in test [3] (doxorubicin resistant cells vs parental cells) is on record as “more than 16 folds”. Besides, the figures for the “population with doxorubicin uptake” value (in test [4]; in the test with Hep3B cells [5]; in [6]) were 55.4%, 76.4% and 31.1%, respectively. The figures for the “net increase in apoptotic populations” value (in [7]; in the test with Hep3B cells [8]; in test [9]) were 11.3%, 12.5% and 7.7%, respectively.
